Measurements published in PMC8078842 (PLoS Neglected Tropical Diseases, 2021).

What was measured:
[1] = tested on: Calmodulin; conditions: Inhibits nNO synthase in vitro; cited from earlier work
[2] = tested on: GABA-B; experiment: CNS side effect panel, [^3H]CGP 54626A; type: binding; conditions: pentamidine 1.0E^-5 M
[3] = molecular target: T1, Dopamine, D2s (h) (Homo sapiens, UniProt P14416); experiment: CNS side effect panel, [^3H]-Raclopride; type: binding; conditions: pentamidine 1.0E^-5 M
T1 construct: purchased Perkin-Elmer Science Discovery Systems (NovaScreen), customised CNS screening panel
T1 sequence (P14416 1-414 isoform P14416-2): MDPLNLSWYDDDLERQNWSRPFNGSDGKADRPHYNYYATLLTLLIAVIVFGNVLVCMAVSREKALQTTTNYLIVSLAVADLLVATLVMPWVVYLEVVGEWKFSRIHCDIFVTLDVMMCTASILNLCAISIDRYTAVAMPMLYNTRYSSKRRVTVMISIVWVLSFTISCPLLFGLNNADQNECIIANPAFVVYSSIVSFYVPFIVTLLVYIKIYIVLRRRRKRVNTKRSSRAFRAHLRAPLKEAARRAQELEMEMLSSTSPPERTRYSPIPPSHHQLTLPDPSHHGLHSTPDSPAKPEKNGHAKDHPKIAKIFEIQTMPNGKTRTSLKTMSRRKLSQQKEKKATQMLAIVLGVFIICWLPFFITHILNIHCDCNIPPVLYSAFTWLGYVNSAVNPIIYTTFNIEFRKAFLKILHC

[4] = molecular target: Oxidase, MAO-B, Peripheral (Rattus norvegicus, UniProt P19643); experiment: CNS side effect panel, [^14C]Phenylethylamine; type: biochemical
Chain of Oxidase, MAO-B, Peripheral (P19643 whole entry): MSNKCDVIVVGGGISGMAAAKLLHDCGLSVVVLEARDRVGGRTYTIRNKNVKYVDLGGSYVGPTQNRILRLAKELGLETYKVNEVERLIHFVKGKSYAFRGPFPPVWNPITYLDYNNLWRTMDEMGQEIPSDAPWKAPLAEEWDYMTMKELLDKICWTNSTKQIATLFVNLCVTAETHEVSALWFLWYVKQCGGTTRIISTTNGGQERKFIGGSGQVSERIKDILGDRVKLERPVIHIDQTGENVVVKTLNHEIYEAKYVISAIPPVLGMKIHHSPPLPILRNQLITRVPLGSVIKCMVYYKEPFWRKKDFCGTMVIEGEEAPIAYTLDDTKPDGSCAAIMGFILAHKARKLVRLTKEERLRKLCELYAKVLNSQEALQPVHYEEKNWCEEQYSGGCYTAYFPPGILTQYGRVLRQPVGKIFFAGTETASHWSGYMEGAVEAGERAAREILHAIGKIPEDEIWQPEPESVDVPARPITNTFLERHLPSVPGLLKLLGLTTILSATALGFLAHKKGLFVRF

[5] = tested on: Trypanosoma brucei blood stream form trypomastigotes (T. b. brucei strain S427); experiment: Trypanocidal activity in vitro (Alamar Blue); type: cell-based
[6] = tested on: Potassium Channel, Ca2+ Act., VI; experiment: CNS side effect panel, [^125I]Apamin; type: binding; conditions: pentamidine 1.0E^-5 M
[7] = human, in vivo; cited from earlier work
[8] = Drug release from dialysis cells (Ritger-Peppas model); type: physicochemical; conditions: 10 mM PTI ± 1% Pluronic, water, 37°C
Description: The tube was immersed in a 200 mL closed Duran flask which was placed in a water bath at 37°C for the duration of the experiment.
The data was fitted to Ritger-Peppas model.
Where M and M∞ are the cumulative amounts of drug released at time t and at infinite time, respectively; k, the reaction constant, t the time, n, the diffusional exponent describing the type of regime type: n = 1, case II transport, n = 0.5, Fickian diffusion, 0.5<n<1 non-Fickian diffusion.

[9] = tested on: Sodium, Site 2; experiment: CNS side effect panel, [^3H]Batrachotoxin A 20-a-Benzo; type: binding; conditions: pentamidine 1.0E^-5 M
[10] = tested on: Serine proteases; conditions: cited from earlier work
[11] = tested on: Glutamate, NMDA Agonist Site (Ionotropic); experiment: CNS side effect panel, [^3H]CGP 39653; type: binding; conditions: pentamidine 1.0E^-5 M
[12] = tested on: Norepinephrine Transporter; experiment: CNS side effect panel, [^3H]Nisoxetine; type: binding; conditions: pentamidine 1.0E^-5 M
[13] = tested on: Nitric Oxide, NOS (Neuronal-Binding); experiment: CNS side effect panel, [^3H]NOARG; conditions: pentamidine 1.0E^-5 M
[14] = tested on: Glutamate, MK-801 Site (Ionotropic); experiment: CNS side effect panel, [^3H]MK-801; type: binding; conditions: pentamidine 1.0E^-5 M
[15] = read-out: % of bsf trypomastigotes inhibited

For `N=C(N)c1ccc(OCCCCCOc2ccc(C(=N)N)cc2)cc1` [Pentamidine, 1,5-bis-4ρ-amidinophenoxypentane], the Affinity [1] is listed as 30 µM, the “Percent Inhibition” value [2] is listed as 10.74% and the “Percent Inhibition” value [3] is listed as 20.12%. For the same compound, the Ki ([4]; Monoamine oxidase B, concentration-response) was 181 nM, the “Percent Inhibition” value ([4]; pentamidine 1.0E^-5 M) was 99.99% and the inhibition at 5.7 pM [5, 15] was 4.1%. It also gave an inhibition at 17 pM [5, 15] of 35%, an inhibition at 51 pM [5, 15] of 65.3% and an inhibition at 0.3 µM [5, 15] of 97.4%. For the same compound, the inhibition at 1 µM [5, 15] was 98.3%, the IC50 ([5]; read-out: IC50 (± 95% CI) of pentamidine) was 0.0211 nM and the “Percent Inhibition” value [6] was 2.07%. The “incidence of diabetes mellitus” value [7] was “occasional but irreversible”, the incidence of hypoglycaemia [7] was 5-40% and the “reaction constant (k, Ritger-Peppas)” value [8] was roughly 0.3. The “reaction type (diffusional exponent n, Ritger-Peppas)” value [8] was “ca. 0.5”, the “Percent Inhibition” value [9] was 46.94% and the Affinity [10] was 4000 µM. The “Percent Inhibition” value [11] was 5.99%, the “Percent Inhibition” value [12] was 21.39% and the “Percent Inhibition” value [13] was 12.98%. The “Percent Inhibition” value [14] was 6.25%.
